Read-outs that look alike come from different tables or passages of the source.
Assays:
[1] = tested on: Pseudomonas putida KT2440; assay: Bacterial growth in microscale cultivation, P. putida; format: cell-based; conditions: for activity at 0.3 µM / activity at 3 µM / activity at 30 µM / activity at 0.4 µM / activity at 4 µM / activity at 40 µM: Pseudomonas putida; for Lag Phase / activity at 0.4 µM / activity at 4 µM / activity at 40 µM: relative to control
Method: (§1) The following bacteria were cultivated in the presence of trans-chalcone derived inhibitors: Corynebacterium glutamicum ATCC13032[43], Escherichia coli K-12 MG1655[44], Pseudomonas putida KT2440[45], and Bacillus subtilis 168[46]. The growth of these bacteria was monitored in flower-well plates shaken at 1200 rpm as backscatter at 620 nm (gain 20) using a BioLector® microscale cultivation system (m2p labs, Baesweiler, Germany). For further experimental details please refer to the Supplementary Information.
(§2) medium or the appropriate minimal medium and shaken at 140 rpm overnight. For inoculation of
(§3) the main culture, cells equivalent to an optical density at 600 nm of 0.5 (C. glutamicum, E. coli,
(§4) and P. putida) or 0.25 (B. subtilis) in 800 µL medium were washed and resuspended in fresh
(§5) media. Inhibitor substances were dissolved in DMSO and added to the media to a final
(§6) Since the least polar trans-chalcone and 2’-hydroxychalcone precipitated in the growth media at
(§7) the highest concentrations, the maximal concentration of these compounds was reduced to 400
(§8) µM and 100 µM, respectively. The final backscatter at 620 nm, the growth rate (h-1), and the
(§9) duration of the lag phase of all cultures were determined in a BioLector microscale cultivation
(§10) system in comparison to negative controls supplemented with the solvent DMSO. A longer lag

Bacillus subtilis 168 = assay: Bacterial growth in microscale cultivation, B. subtilis; format: cell-based; conditions: for Lag Phase / activity at 0.4 µM / activity at 4 µM / activity at 40 µM: relative to control
Method: as §1, §2, §3, §4, §5, §6, §7, §8, §9, §10

F. trinervia PEPC = target: T1, F. trinervia PEPC (Flaveria trinervia, UniProt P30694); assay: biochemical; format: biochemical; conditions: for Selectivity C4/C3: C4 PEPC over C3 isoform; for IC50: C4 PEPC
T1 construct: the full-length ppcA gene of PEPC from F. trinervia (EMBL-Bank X61304); made in house; host or cells: Escherichia coli BL21(DE3)
T1 sequence (P30694 1-966): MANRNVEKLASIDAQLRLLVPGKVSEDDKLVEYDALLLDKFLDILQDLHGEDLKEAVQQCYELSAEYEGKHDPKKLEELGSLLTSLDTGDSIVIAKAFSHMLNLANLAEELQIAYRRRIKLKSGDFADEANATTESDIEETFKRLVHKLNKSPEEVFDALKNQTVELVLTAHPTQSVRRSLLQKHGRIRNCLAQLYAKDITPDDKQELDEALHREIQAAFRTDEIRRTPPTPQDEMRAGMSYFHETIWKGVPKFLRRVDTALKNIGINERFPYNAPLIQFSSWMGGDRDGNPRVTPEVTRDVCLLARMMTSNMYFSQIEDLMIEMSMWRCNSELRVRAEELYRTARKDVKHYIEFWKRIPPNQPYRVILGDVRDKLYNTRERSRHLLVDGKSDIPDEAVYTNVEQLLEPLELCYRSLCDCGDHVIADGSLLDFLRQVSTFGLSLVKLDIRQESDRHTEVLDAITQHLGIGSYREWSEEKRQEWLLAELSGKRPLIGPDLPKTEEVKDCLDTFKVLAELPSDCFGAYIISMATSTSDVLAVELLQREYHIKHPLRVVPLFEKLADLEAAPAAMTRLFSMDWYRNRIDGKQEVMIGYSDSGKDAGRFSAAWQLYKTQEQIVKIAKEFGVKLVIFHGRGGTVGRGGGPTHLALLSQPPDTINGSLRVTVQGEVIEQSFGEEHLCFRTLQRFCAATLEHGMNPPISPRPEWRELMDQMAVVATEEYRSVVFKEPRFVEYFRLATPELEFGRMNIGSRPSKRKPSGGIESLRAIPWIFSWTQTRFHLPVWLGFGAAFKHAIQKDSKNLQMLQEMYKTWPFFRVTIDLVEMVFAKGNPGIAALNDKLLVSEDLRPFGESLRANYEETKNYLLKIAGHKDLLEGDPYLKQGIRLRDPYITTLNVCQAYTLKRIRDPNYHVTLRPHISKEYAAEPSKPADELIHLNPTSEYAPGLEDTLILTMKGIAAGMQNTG
Method: The IC50 values of small molecule compounds on F. pringlei and F. trinervia PEPCs were determined using PEPC coupled spectrophotometric assay. The amount of NADH oxidized by NADH-malate dehydrogenase was measured by the decrease in absorbance at 340 nm in a Beckman DU-800 spectrophotometer, thus the value is in proportion to the corresponding substrate conversion of the enzyme. […] The reactions were started by adding two folds of the Km value of PEP for each enzyme. The data were analyzed using GraFit (Erithacus Software, UK).

`O=C(/C=C/c1ccccc1)c1ccc(O)c(O)c1O` [Compound 10, 2′,3′,4′-Trihydroxychalcone] gave an activity at 0.3 µM ([1]; KT2440, read-out: Final Backscatter, complex medium, 0.3 µM, relative to control) of 103%, an activity at 3 µM ([1]; KT2440, read-out: Final Backscatter, complex medium, 3 µM, relative to control) of 102% and an activity at 30 µM ([1]; KT2440, read-out: Final Backscatter, complex medium, 30 µM, relative to control) of 105%. For the same molecule, the activity at 0.3 µM ([1]; KT2440, read-out: Final Backscatter, minimal medium, 0.3 µM, relative to control) was 101%, the activity at 3 µM ([1]; KT2440, read-out: Final Backscatter, minimal medium, 3 µM, relative to control) was 101% and the activity at 30 µM ([1]; KT2440, read-out: Final Backscatter, minimal medium, 30 µM, relative to control) was 103%. The activity at 0.3 µM ([1]; KT2440, read-out: Growth rate, complex medium, 0.3 µM, relative to control) was 114%, the activity at 3 µM ([1]; KT2440, read-out: Growth rate, complex medium, 3 µM, relative to control) was 103% and the activity at 30 µM ([1]; KT2440, read-out: Growth rate, complex medium, 30 µM, relative to control) was 105%. For the same molecule, the activity at 0.3 µM ([1]; KT2440, read-out: Growth rate, minimal medium, 0.3 µM, relative to control) was 94.8%, the activity at 3 µM ([1]; KT2440, read-out: Growth rate, minimal medium, 3 µM, relative to control) was 96% and the activity at 30 µM ([1]; KT2440, read-out: Growth rate, minimal medium, 30 µM, relative to control) was 91.3%. The “Lag Phase” value ([1]; complex medium, 0.3 µM) was 103,9%, the “Lag Phase” value ([1]; complex medium, 3 µM) was 100,9% and the “Lag Phase” value ([1]; complex medium, 30 µM) was 107,3%. The “Lag Phase” value ([1]; minimal medium, 0.3 µM) was 100,0%, the “Lag Phase” value ([1]; minimal medium, 3 µM) was 101,5% and the “Lag Phase” value ([1]; minimal medium, 30 µM) was 99,2%. For the same molecule, the activity at 0.3 µM (Bacillus subtilis 168; Bacillus subtilis, 168, read-out: Final Backscatter, complex medium, 0.3 µM, relative to control) was 102%, the activity at 3 µM (Bacillus subtilis 168; Bacillus subtilis, 168, read-out: Final Backscatter, complex medium, 3 µM, relative to control) was 101% and the activity at 30 µM (Bacillus subtilis 168; Bacillus subtilis, 168, read-out: Final Backscatter, complex medium, 30 µM, relative to control) was 103%. The activity at 0.3 µM (Bacillus subtilis 168; Bacillus subtilis, 168, read-out: Final Backscatter, minimal medium, 0.3 µM, relative to control) was 108%, the activity at 3 µM (Bacillus subtilis 168; Bacillus subtilis, 168, read-out: Final Backscatter, minimal medium, 3 µM, relative to control) was 110% and the activity at 30 µM (Bacillus subtilis 168; Bacillus subtilis, 168, read-out: Final Backscatter, minimal medium, 30 µM, relative to control) was 106%. The activity at 0.3 µM (Bacillus subtilis 168; Bacillus subtilis, 168, read-out: Growth rate, complex medium, 0.3 µM, relative to control) was 106%, the activity at 3 µM (Bacillus subtilis 168; Bacillus subtilis, 168, read-out: Growth rate, complex medium, 3 µM, relative to control) was 109% and the activity at 30 µM (Bacillus subtilis 168; Bacillus subtilis, 168, read-out: Growth rate, complex medium, 30 µM, relative to control) was 112%. For the same molecule, the activity at 0.3 µM (Bacillus subtilis 168; Bacillus subtilis, 168, read-out: Growth rate, minimal medium, 0.3 µM, relative to control) was 88.5%, the activity at 3 µM (Bacillus subtilis 168; Bacillus subtilis, 168, read-out: Growth rate, minimal medium, 3 µM, relative to control) was 94.4% and the activity at 30 µM (Bacillus subtilis 168; Bacillus subtilis, 168, read-out: Growth rate, minimal medium, 30 µM, relative to control) was 90.6%. The “Lag Phase” value (Bacillus subtilis 168; complex medium, 0.3 µM) was 100,0%, the “Lag Phase” value (Bacillus subtilis 168; complex medium, 3 µM) was 104,2% and the “Lag Phase” value (Bacillus subtilis 168; complex medium, 30 µM) was 97,9%. The “Lag Phase” value (Bacillus subtilis 168; minimal medium, 0.3 µM) was 98,3%, the “Lag Phase” value (Bacillus subtilis 168; minimal medium, 3 µM) was 96,6% and the “Lag Phase” value (Bacillus subtilis 168; minimal medium, 30 µM) was 99,3%. The “Selectivity C4/C3” value (F. trinervia PEPC) was 15 fold, the “Selectivity C4/C3” value (F. trinervia PEPC; listed as 2′,3′,4′-Trihydroxychalcone) was 15–45 fold and the IC50 (F. trinervia PEPC; IC50 F. trinervia PEPC) was 4.2 ± 1.5 µM.

`O=C(/C=C/c1ccc(O)c(O)c1)c1ccc(O)cc1O` [Compound 8, 2′,4′,3,4-Tetrahydroxy-chalcone] showed an activity at 0.4 µM ([1]; KT2440, complex medium, 0.4 µM, read-out: Final Backscatter) of 94.7%, an activity at 0.4 µM ([1]; KT2440, complex medium, 0.4 µM, read-out: Growth rate) of 90.8% and an activity at 4 µM ([1]; KT2440, complex medium, 4 µM, read-out: Final Backscatter) of 97%. It also gave an activity at 4 µM ([1]; KT2440, complex medium, 4 µM, read-out: Growth rate) of 97.4%, an activity at 40 µM ([1]; KT2440, complex medium, 40 µM, read-out: Final Backscatter) of 94.9% and an activity at 40 µM ([1]; KT2440, complex medium, 40 µM, read-out: Growth rate) of 95.3%. For the same molecule, the activity at 0.4 µM ([1]; KT2440, minimal medium, 0.4 µM, read-out: Final Backscatter) was 87%, the activity at 0.4 µM ([1]; KT2440, minimal medium, 0.4 µM, read-out: Growth rate) was 83.7% and the activity at 4 µM ([1]; KT2440, minimal medium, 4 µM, read-out: Final Backscatter) was 89.8%. It also gave an activity at 4 µM ([1]; KT2440, minimal medium, 4 µM, read-out: Growth rate) of 89%, an activity at 40 µM ([1]; KT2440, minimal medium, 40 µM, read-out: Final Backscatter) of 94.8% and an activity at 40 µM ([1]; KT2440, minimal medium, 40 µM, read-out: Growth rate) of 90%. For the same molecule, the “Lag Phase” value ([1]; complex medium, 0.4 µM) was 92,6%, the “Lag Phase” value ([1]; complex medium, 4 µM) was 93,2% and the “Lag Phase” value ([1]; complex medium, 40 µM) was 96,3%. For the same molecule, the “Lag Phase” value ([1]; minimal medium, 0.4 µM) was 99,6%, the “Lag Phase” value ([1]; minimal medium, 4 µM) was 99,6% and the “Lag Phase” value ([1]; minimal medium, 40 µM) was 98,5%. It also gave an activity at 0.4 µM (Bacillus subtilis 168; Bacillus subtilis, 168, complex medium, 0.4 µM, read-out: Final Backscatter) of 98.1%, an activity at 0.4 µM (Bacillus subtilis 168; Bacillus subtilis, 168, complex medium, 0.4 µM, read-out: Growth rate) of 98.2% and an activity at 4 µM (Bacillus subtilis 168; Bacillus subtilis, 168, complex medium, 4 µM, read-out: Final Backscatter) of 100%. It also gave an activity at 4 µM (Bacillus subtilis 168; Bacillus subtilis, 168, complex medium, 4 µM, read-out: Growth rate) of 111%, an activity at 40 µM (Bacillus subtilis 168; Bacillus subtilis, 168, complex medium, 40 µM, read-out: Final Backscatter) of 98.9% and an activity at 40 µM (Bacillus subtilis 168; Bacillus subtilis, 168, complex medium, 40 µM, read-out: Growth rate) of 109%. For the same molecule, the activity at 0.4 µM (Bacillus subtilis 168; Bacillus subtilis, 168, minimal medium, 0.4 µM, read-out: Final Backscatter) was 85.1%, the activity at 0.4 µM (Bacillus subtilis 168; Bacillus subtilis, 168, minimal medium, 0.4 µM, read-out: Growth rate) was 106% and the activity at 4 µM (Bacillus subtilis 168; Bacillus subtilis, 168, minimal medium, 4 µM, read-out: Final Backscatter) was 92.1%. For the same molecule, the activity at 4 µM (Bacillus subtilis 168; Bacillus subtilis, 168, minimal medium, 4 µM, read-out: Growth rate) was 105%, the activity at 40 µM (Bacillus subtilis 168; Bacillus subtilis, 168, minimal medium, 40 µM, read-out: Final Backscatter) was 94.2% and the activity at 40 µM (Bacillus subtilis 168; Bacillus subtilis, 168, minimal medium, 40 µM, read-out: Growth rate) was 95.7%. The “Lag Phase” value (Bacillus subtilis 168; complex medium, 0.4 µM) was 98,3%, the “Lag Phase” value (Bacillus subtilis 168; complex medium, 4 µM) was 86,5% and the “Lag Phase” value (Bacillus subtilis 168; complex medium, 40 µM) was 105,1%. The “Lag Phase” value (Bacillus subtilis 168; minimal medium, 0.4 µM) was 107,5%, the “Lag Phase” value (Bacillus subtilis 168; minimal medium, 4 µM) was 110,3% and the “Lag Phase” value (Bacillus subtilis 168; minimal medium, 40 µM) was 90,4%. The “Selectivity C4/C3” value (F. trinervia PEPC) was 29 fold and the IC50 (F. trinervia PEPC; read-out: IC50 F. trinervia PEPC) was 2.2 ± 0.2 µM.

Reference: article PMC4893628, “Chalcone-based Selective Inhibitors of a C4 Plant Key Enzyme as Novel Potential Herbicides” (Scientific Reports, 2016)
